Reference: patent publication US10101319B2, “Methods of detecting plasmodium infection” (Commonwealth Scientific and Industrial Research Organisation, priority 2013, dated 2018)

Legend:
[1] = tested on: Plasmodium falciparum; assay: GC-MS analysis of exhaled breath volatiles and PCR parasitaemia, Cohort 1, induced blood stage malaria, treated with OZ439; format: in vivo, human; conditions: Cohort 1 compared with Cohort 2 (slower acting bisquinoline 4-aminoquinoline)
Protocol: This research was a controlled study using a blood stage Plasmodium falciparum (BSPC) inoculum challenge to characterize the efficacy of two anti-malaria drugs against early Plasmodium falciparum blood stage infection. Investigation of breath volatiles was an “add-on” to the anti-malarial efficacy studies. The study was conducted in two cohorts (n=8 for Cohort 1 and n=7 for Cohort 2) using different anti-malaria drugs. The anti-malaria drug investigated in Cohort 1 was OZ439 and the drug used in Cohort 2 was Piperaquine. OZ439, as an artemisin derivative, is rapidly absorbed, acts rapidly and is short-lived in the body. Piperaquine is absorbed slowly and has a long half-life in the body. […]
Each participant in the cohort was inoculated on Day 0 with ˜1,800 viable Plasmodium falciparum-infected human erythrocytes administered intravenously. On an outpatient basis, participants were monitored daily (AM) or morning (AM) and evening (PM), from day 3 until PCR positive for presence of malaria parasites, for adverse events and the unexpected early onset of symptoms, signs or parasitological evidence of malaria.
On the day designated for commencement of treatment, as determined by qPCR results (usually Day7/8 AM), participants were admitted to the study unit and confined for safety monitoring and anti-malaria drug administration with parasite load and drug levels being monitored. […]

[2] = tested on: P. falciparum; conditions: 13 evaluable volunteers; cited from earlier work

| Compound | Decline in parasitaemia and thioether levels after drug [1] | mean parasite reduction ratio [2] |
| --- | --- | --- |
| c1cc([C@H]2CC[C@]3(CC2)OO[C@]2(O3)C3CC4CC(C3)CC2C4)ccc1OCCN1CCOCC1 [OZ439] | faster decline in parasitaemia and thioether levels | – |
| artemether-lumefantrine | – | 759 |
| atovaquone-proguanil | – | 17 |
